Source: patent US9422336B2 (priority 2012, dated 2016)

Key:
[1] = test system: acute visceral pain model in mice; test: acute visceral pain model in mice (acetic acid writhing); conditions: n=6
H5N1 viruses = assay type: cell-based, influenza A virus H5N1; conditions: 0.001-10 μM; MDCK monolayer; 5,000 pfu/ml; 3 days; FIG. 7 left panel
H1N1 viruses = assay type: cell-based, influenza A virus H1N1; conditions: 0.001-10 μM; MDCK monolayer; 5,000 pfu/ml; 3 days; FIG. 7 right panel
[2] = test system: sciatic nerve injured limb (allodynia); test: von Foley hair test (mechanical stimulation) after partial sciatic nerve injury; assay type: in vivo, C57BL/6 male mice; conditions: 2 mg i.p., N=6 per time point
Description: (§1) Surgical procedures were performed under Halothane (2-3%) anesthesia. Partial sciatic nerve injury was made by tying a tight ligature with 9-0 silk suture around ⅓ to ½ the diameter of the sciatic nerve, as had been described (Malmberg A B and Basbaum A I. Pain 1998; 76:215-222). In mice with sham operation, the sciatic nerve was exposed but not ligated. The mice were subsequently habituated to the test environment for at least 1 hour before thermal test and von Foley hair test. In thermal test, the paw withdrawal latency was determined as an indicator for pain. […], the stimulus intensity was adjusted to give a 10-second withdrawal latency in the normal mouse, while the cutoff in the absence of a response was 20 seconds. The mechanical sensitivity with von Foley hairs was assessed by the up-down paradigm (Chaplan et al, J Neurosci Methods 1994; 53:53-66). The filament for the testing paradigm was chosen to be 0.3-gm.
The same animal model in example 3 was used. The peptide 5 as shown in SEQ ID NO: 5 was tested for its anti-allodynia effects in mice receiving sciatic nerve ligation. Results from the mechanical stimulation (von Foley test) of the sham operated mice and the nerve injured mice were compared in parallel on day 5, 10 and 30 after the surgery.

[3] = test system: sciatic nerve injured limb (hyperalgesia); test: thermal test (paw withdrawal latency) after partial sciatic nerve injury; assay type: in vivo, C57BL/6 male mice; conditions: 2 mg i.p., N=6; for temperature-induced pain, paw withdrawal latency: injured limb, day 5, 10 and 30 after surgery, vs untreated (DMSO solvent), FIG. 5
Description: as §1
The peptide 5 as shown in SEQ ID NO: 5 was tested for its anti-hyperalgesia effects in mice receiving sciatic nerve ligation. Results from the thermal test of the sham operated mice and the nerve injured mice were compared in parallel on day 5, 10 and 30 after the surgery.

| Compound | p, onset of pain, peptide 5 vs this substance ([1]; peptides 2 mg, morphine 1 mg i.p., FIG. 3) | p, total writhing number in 30 minutes, peptide 5 vs this substance ([1]; peptides 2 mg, morphine 1 mg i.p., FIG. 4) | inhibition of replication of H5N1 viruses in vitro (H5N1 viruses) | inhibition of replication of H1N1 viruses in vitro (H1N1 viruses) | p (ANOVA), von Foley hair threshold, untreated vs treated injury-ipsilateral limb ([2]; day 5, 10 or 30) | allodynia, von Foley hair threshold ([2]; injured limb, day 5, 10 and 30 after surgery, vs untreated (pure water), FIG. 6, listed as peptide 5) | onset of the pain induced by intra-peritoneal injection of acetic acid (onset of the 1st writhing) ([1]; 2 mg peptide i.p. 30 min before 1 ml 1% acetic acid i.p., control water alone, FIG. 3) | total writhing number in 30 minutes after acetic acid injection ([1]; 2 mg peptide i.p. 30 min before 1 ml 1% acetic acid i.p., control water alone, FIG. 4) | total writhing number in 30 minutes after acetic acid injection ([1]; 2 mg peptide i.p. 30 min before 1 ml 1% acetic acid i.p., control water alone, FIG. 4, listed as peptide 5) | p (ANOVA), paw withdrawal latency, untreated vs treated injured ipsilateral limb ([3]; day 5, 10 or 30) | temperature-induced pain, paw withdrawal latency [3] | temperature-induced pain, paw withdrawal latency ([3]; listed as peptide 5) |
| --- | --- | --- | --- | --- | --- | --- | --- | --- | --- | --- | --- | --- |
| CN1CC[C@]23c4c5ccc(O)c4O[C@H]2[C@@H](O)C=C[C@H]3[C@H]1C5 [morphine, reference compound] | > 0.05 | > 0.05 | – | – | – | – | – | – | – | – | – | – |
| DEAQETAVSSHEQD ((1)..(14) residues 1-14 of rabbit alpha1-antiproteinase F; listed as Oryctolagus cuniculus) [Peptide 5, fragment (residues 1-14) of rabbit α1-antiproteinase F] | – | – | potent effects in inhibiting the replication | potent effects in inhibiting the replication | < 0.005 | significantly increase the tolerance to mechanical stimuli | significant delay in the onset of the pain | significant reduction in the total writhing number | reduced total writhing episodes | < 0.005 | significantly reduced the temperature-induced pain | significantly increase the tolerance to the heat-induced pain |
